Data on one compound can be found in patent US11083714B2, “Selective anti-cancer agent effective for prevention and treatment” (Molecular International Research, Inc., priority 2018, dated 2021).

“Also recorded” adds a separate entry of the source.

One data set deals with OVCAR-5, SHIN-3, OVCAR-8. Put plainly: MTT cell viability, ovarian cancer cell lines. Format: cell-based, human. The conditions noted are these: 48 hr. The method, then:
(§1) FIG. 7. Dose-response curves for cell viability of human ovarian cancer cell lines OVCAR-5 (triangles), SHIN-3 (squares), and OVCAR-8 (lozenges) exposed to de-ethylflavopereirine. Cells were cultured in the presence of increasing concentrations of the compound for 48 hr and cell viability was determined by MTT assay. MRC-5 (crosses), an immortalized, normal human […] cell line, was used as a control.
(§2) De-ethylflavopereirine was tested for its activity against ovarian, pancreatic, brain, and colon cancer cell lines. […] Cytotoxicity is assayed by reducing a yellow tetrazolium dye, 3-(4,5-dimethylthiazol-2-yl)-2,5-diphenyltetrazolium bromide (MTT), to insoluble purple formazan. The MTT assay is a colorimetric assay for determining the number of viable cells.

Data set [1] concerns MIA PaCa, PANC-1, BxPc, AsPc. Put plainly: MTT cell viability, pancreatic cancer cell lines. Format: cell-based, human. The conditions noted are these: 48 hr. The procedure:
(§3) FIG. 8. Dose-response curves for cell viability of human pancreatic cancer cell lines MIA PaCa (squares), PANC-1 (lozenges), BxPc (crosses), and AsPc (triangles) exposed to de-ethylflavopereirine. Cells were cultured in the presence of increasing concentrations of the compound for 48 hr and cell viability was determined by MTT assay. MRC-5 (asterisks) was used as a control.
as §2

Another data set deals with MRC-5. Put plainly: MTT cell viability, normal control cell line. Type of data set: cell-based, human. The conditions noted are these: MRC-5, 48 hr. The method, then:
as §1, §3, §2

Data set [2] concerns PANC-1 pancreatic cancer cells. Put plainly: Anchorage independent colony formation in soft agar. Type of data set: cell-based. The conditions noted are these: 10 μM or 15 μM, 20 days; listed as De-ethylflavopereirine. From the text:
FIG. 13. Colony formation in soft agar of PANC-1 pancreatic cancer cells with or without de-ethylflavopereirine treatment.
Anchorage independent colony formation assay in soft agar was used to test long-term survival (20 days) of tumorigenic pancreatic cancer cells after exposure to de-ethylflavopereirine. PANC-1 cells formed colonies at the rate of 12% when untreated. […] No tumorigenic cancer cells survived after exposure to compound 13-9-1 (FIG. 13).

The test system of the next data set is PANC-1 tumors. Put plainly: Orthotopic PANC-1 luciferase tumors in nude mice. Format: in vivo. From the text:
FIG. 16. Animal Study. PANC-1 cells with luciferase gene were orthotopically implanted into the pancreas of nude mice and the tumors were monitored by live-animal imaging. Longitudinal tumor growth shown by quantification of all images in the treated group (lozenges, n=9) and the untreated group (squares, n=10). Tumor burden is represented by average total photon flux (top) and its log transform (bottom).
Human PANC-1 pancreatic cancer cells were transfected with the luciferase gene to enable imaging in vivo. These cells were transplanted into the pancreas of nude mice and, after 10 days, tumors were established in the mice and they were treated with de-ethylflavopereirine by oral gavage. Longitudinal tumor progress was followed by live-animal imaging. The results of this experiment are depicted in FIGS. 16 to 21.

A further data set deals with PANC-1 cancer stem cells. Briefly: Tumor formation of PANC-1 cancer stem cells (FIG. 27). Type of data set: in vivo, mice. The conditions noted are these: 2×10^5 pre-treated PANC-1 cells. The method, then: FIG. 27. Reduction of tumor formation by de-ethylflavopereirine. Compound 13-9-1 reduced tumor formation of PANC-1 cancer stem cells.
Mice were then treated with de-ethylflavopereirine for 20 days after injection. […] Maximum tumor formation rate reached 80% at day 39, which is a highly significant difference compared to control (P=0.001 by log-rank test).

The test system of another data set is HT-29 tumors. Briefly: Subcutaneous HT-29 colon cancer xenografts. Format: in vivo. Particulars: for toxicity and deaths of tumor-bearing mice: mouse, in vivo; for TUNEL staining of tumor sections: tumors removed after treatment. The method, then: FIG. 30. Effect of de-ethylflavopereirine on HT-29 colon cancer tumor volume. Nude mice with subcutaneous xenografts of human HT-29 colon cancer cells were grouped as untreated control (squares), administered compound 13-9-1 (triangles), or administered IFL as conventional chemotherapy regimen (circles). IFL is a combination of irinotecan, fluorouracil, and leucovorin often used for treatment of colorectal cancer. […] Animals were treated for two and a half weeks.
FIGS. 31 to 33 show TUNEL staining of HT-29 tumors removed from untreated mice (control) in FIG. 31, mice administered de-ethylflavopereirine in FIG. 32, or mice administered IFL in FIG. 33. […] After treatments were concluded, tumors were removed from the animals, fixed, thin sectioned, and stained by the TUNEL method to identify cells undergoing apoptosis. In FIG. 31, the borders of tumors from control animals show intact tissue and the absence of TUNEL staining. […] The color images clearly distinguish the dark purple/brown color of cells undergoing apoptotis from the blue color of intact tumor cells.
In this example, the anti-tumor activity of de-ethylflavopereirine was compared with the activity of IFL (a combination of irinotecan, fluorouracil, and leucovorin). IFL has been routinely used in the treatment of colorectal cancer, but is associated with significant toxicity. The toxicity is so severe that some have encapsulated irinotecan in liposomes to reduce negative side effects.
A comparison of the direct impact of de-ethylflavopereirine and IFL on tumors is depicted in FIGS. 32 and 33. Terminal deoxynucleotidyl transferase dUTP nick-end labeling (TUNEL) is a method for detecting DNA fragmentation by labeling the 3′-hydroxyl termini in the double-strand DNA breaks generated during apoptosis. Tumor sections from the two groups and an untreated control group were immunostained by the TUNEL method to specifically identify cells undergoing apoptosis.

In the case of `c1ccc2c(c1)[nH]c1c2cc[n+]2ccccc12` [Compound 13-9-1, 12H-indolo[2,3-a]quinolizin-5-ium], the cell viability entry in the data set with OVCAR-5, SHIN-3, OVCAR-8 is “dose-dependent decrease in cancer cell viability”. Further, in data set [1], the cell viability result is “dose-dependent decrease in cancer cell viability”. Further, the “toxicity to noncancerous cells compared with cancer cells” value in the data set with MRC-5 was “significantly less toxic”. In data set [2], the “colony formation in soft agar” value is on record as “completely inhibited formation of PANC-1 colonies; also recorded: completely inhibited colony formation”. Also, the “body weight compared with untreated control group” value in the data set on PANC-1 tumors (day 0 through day 40) is on record as “indistinguishable”. For the same compound, the “mice whose tumors were completely abolished” value in the data set on PANC-1 tumors (oral gavage) came to 22%. In addition, in the data set on PANC-1 tumors (oral gavage, treated (n=9) vs untreated (n=10)), the “anti-tumor effect by tumor burden (total photon flux)” value is “significant”. For the same compound, the “mice whose tumors were completely abolished (number of animals)” value in the data set on PANC-1 tumors (oral gavage, listed as de-ethylflavopereirine) was 2/9 and two of 21. For the same compound, in the data set with PANC-1 tumors (treated vs untreated), the “examination of internal organs” value is listed as “failed to reveal any toxic effects”, the “final tumor weights at necropsy” value was “statistically significant reduction” and the “metastatic lesions at necropsy” value is on record as “reduced”. Also, in the data set on PANC-1 cancer stem cells (Day 20), the tumor formation is on record as 55%. Further, the “maximum tumor formation rate” value with PANC-1 cancer stem cells (Day 39) is on record as 80%. In the data set with HT-29 tumors, the “toxicity and deaths of tumor-bearing mice” value is given as “did not have toxic effects on the mice”; the “TUNEL staining of tumor sections” value was “apoptosis in zones near the periphery of the tumors”. The “toxicity and deaths of tumor-bearing mice” value in the data set with HT-29 tumors (nude, 2.5 weeks) is on record as “No animals treated with compound 13-9-1 died”. The HT-29 tumor volume entry with HT-29 tumors (treated for two and a half weeks) is listed as “reduced HT-29 tumor volumes”. In addition, the “TUNEL staining of tumor sections” value in the data set on HT-29 tumors (listed as de-ethylflavopereirine) is on record as “cells on the periphery were undergoing apoptosis”.
